Tests used:
[1] = biological target: Serine/threonine-protein kinase WNK3 (Homo sapiens) (UniProt Q9BYP7); conditions: Compound concentration 100.0 nM
[2] = biological target: Activin receptor type-2B (Homo sapiens) (UniProt Q13705); conditions: Compound concentration 100.0 nM
[3] = biological target: Interferon-induced, double-stranded RNA-activated protein kinase (Homo sapiens) (UniProt P19525); conditions: Compound concentration 100.0 nM
[4] = biological target: 5-hydroxytryptamine receptor 7 (Homo sapiens, UniProt P34969); conditions: Compound concentration 10.0 uM
[5] = biological target: Histamine H3 receptor (Homo sapiens) (UniProt Q9Y5N1); conditions: Compound concentration 10.0 uM
[6] = biological target: Cyclin-dependent kinase 17 (Homo sapiens) (UniProt Q00537); conditions: Compound concentration 100.0 nM
[7] = test system: Phosphatidylinositol 4,5-bisphosphate 3-kinase catalytic subunit alpha isoform (Homo sapiens), P42336 [C420R]; conditions: Compound concentration 100.0 nM
[8] = biological target: Cyclin-dependent kinase-like 2 (Homo sapiens) (UniProt Q92772); conditions: Compound concentration 100.0 nM
[9] = biological target: Casein kinase I isoform epsilon (Homo sapiens) (UniProt P49674); conditions: Compound concentration 100.0 nM
[10] = biological target: Tyrosine-protein kinase receptor Tie-1 (Homo sapiens) (UniProt P35590); conditions: Compound concentration 100.0 nM
[11] = biological target: Death-associated protein kinase 3 (Homo sapiens) (UniProt O43293); conditions: Compound concentration 100.0 nM
[12] = biological target: Ribosomal protein S6 kinase alpha-6 (Homo sapiens) (UniProt Q9UK32); conditions: Compound concentration 100.0 nM
[13] = biological target: Transient receptor potential cation channel subfamily M member 6 (Homo sapiens) (UniProt Q9BX84); conditions: Compound concentration 100.0 nM
[14] = biological target: T1, Muscarinic acetylcholine receptor M5 (Homo sapiens) (UniProt P08912); conditions: Compound concentration 10.0 uM
T1 sequence (whole entry): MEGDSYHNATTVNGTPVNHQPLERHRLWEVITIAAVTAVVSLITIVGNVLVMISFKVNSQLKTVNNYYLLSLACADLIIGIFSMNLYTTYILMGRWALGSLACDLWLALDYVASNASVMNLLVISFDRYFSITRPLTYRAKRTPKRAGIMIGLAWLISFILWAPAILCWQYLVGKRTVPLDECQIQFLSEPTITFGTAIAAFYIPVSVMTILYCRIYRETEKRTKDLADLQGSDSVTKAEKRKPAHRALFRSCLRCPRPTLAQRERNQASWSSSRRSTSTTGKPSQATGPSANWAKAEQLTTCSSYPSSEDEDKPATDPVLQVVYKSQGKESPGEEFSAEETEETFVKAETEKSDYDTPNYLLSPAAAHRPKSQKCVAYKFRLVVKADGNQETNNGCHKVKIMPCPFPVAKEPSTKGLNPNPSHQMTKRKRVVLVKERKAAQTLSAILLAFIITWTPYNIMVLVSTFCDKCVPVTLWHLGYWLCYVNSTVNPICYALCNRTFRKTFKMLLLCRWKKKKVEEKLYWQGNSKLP

[15] = test system: Phosphatidylinositol 4,5-bisphosphate 3-kinase catalytic subunit alpha isoform (Homo sapiens), P42336 [E545K]; conditions: Compound concentration 100.0 nM
[16] = biological target: Dual specificity mitogen-activated protein kinase kinase 7 (Homo sapiens) (UniProt O14733); conditions: Compound concentration 100.0 nM
[17] = biological target: Mitogen-activated protein kinase 1 (Homo sapiens) (UniProt P28482); conditions: Compound concentration 100.0 nM
[18] = biological target: Serine/threonine-protein kinase PknB (Mycobacterium tuberculosis) (UniProt P9WI81); conditions: Compound concentration 100.0 nM
[19] = test system: ALK tyrosine kinase receptor (Homo sapiens), Q9UM73 [L1196M]; conditions: Compound concentration 100.0 nM
[20] = biological target: LIM domain kinase 2 (Homo sapiens) (UniProt P53671); conditions: Compound concentration 100.0 nM
[21] = biological target: Serine/threonine-protein kinase B-raf (Homo sapiens) (UniProt P15056); conditions: Compound concentration 100.0 nM
[22] = biological target: Proto-oncogene tyrosine-protein kinase receptor Ret (Homo sapiens) (UniProt P07949); conditions: Compound concentration 100.0 nM
[23] = test system: Phosphatidylinositol 4,5-bisphosphate 3-kinase catalytic subunit alpha isoform (Homo sapiens), P42336 [E542K]; conditions: Compound concentration 100.0 nM
[24] = biological target: Mitogen-activated protein kinase 8 (Homo sapiens) (UniProt P45983); conditions: Compound concentration 100.0 nM
[25] = biological target: Interleukin-1 receptor-associated kinase 3 (Homo sapiens) (UniProt Q9Y616); conditions: Compound concentration 100.0 nM
[26] = test system: Tyrosine-protein kinase ABL1 (Homo sapiens), P00519 [F317L]; conditions: Compound concentration 100.0 nM
[27] = biological target: Receptor-interacting serine/threonine-protein kinase 2 (Homo sapiens) (UniProt O43353); conditions: Compound concentration 100.0 nM
[28] = biological target: Platelet-derived growth factor receptor beta (Homo sapiens) (UniProt P09619); conditions: Compound concentration 100.0 nM
[29] = biological target: Phosphatidylinositol 3-kinase catalytic subunit type 3 (Homo sapiens) (UniProt Q8NEB9); conditions: Compound concentration 100.0 nM
[30] = biological target: Tyrosine-protein kinase ABL1 (Homo sapiens) (UniProt P00519); conditions: Compound concentration 100.0 nM
[31] = biological target: Serine/threonine-protein kinase Nek10 (Homo sapiens) (UniProt Q6ZWH5); conditions: Compound concentration 100.0 nM
[32] = biological target: Tyrosine-protein kinase ZAP-70 (Homo sapiens) (UniProt P43403); conditions: Compound concentration 100.0 nM
[33] = biological target: Tyrosine-protein kinase Fes/Fps (Homo sapiens) (UniProt P07332); conditions: Compound concentration 100.0 nM
[34] = test system: Leucine-rich repeat serine/threonine-protein kinase 2 (Homo sapiens), Q5S007 [G2019S]; conditions: Compound concentration 100.0 nM
[35] = biological target: Calcium/calmodulin-dependent protein kinase type 1B (Homo sapiens) (UniProt Q6P2M8); conditions: Compound concentration 100.0 nM
[36] = biological target: Serine/threonine-protein kinase 33 (Homo sapiens) (UniProt Q9BYT3); conditions: Compound concentration 100.0 nM
[37] = test system: Receptor-type tyrosine-protein kinase FLT3 (Homo sapiens), P36888 [R834Q]; conditions: Compound concentration 100.0 nM

Chain of Tyrosine-protein kinase ZAP-70 (Homo sapiens) (P43403 whole entry): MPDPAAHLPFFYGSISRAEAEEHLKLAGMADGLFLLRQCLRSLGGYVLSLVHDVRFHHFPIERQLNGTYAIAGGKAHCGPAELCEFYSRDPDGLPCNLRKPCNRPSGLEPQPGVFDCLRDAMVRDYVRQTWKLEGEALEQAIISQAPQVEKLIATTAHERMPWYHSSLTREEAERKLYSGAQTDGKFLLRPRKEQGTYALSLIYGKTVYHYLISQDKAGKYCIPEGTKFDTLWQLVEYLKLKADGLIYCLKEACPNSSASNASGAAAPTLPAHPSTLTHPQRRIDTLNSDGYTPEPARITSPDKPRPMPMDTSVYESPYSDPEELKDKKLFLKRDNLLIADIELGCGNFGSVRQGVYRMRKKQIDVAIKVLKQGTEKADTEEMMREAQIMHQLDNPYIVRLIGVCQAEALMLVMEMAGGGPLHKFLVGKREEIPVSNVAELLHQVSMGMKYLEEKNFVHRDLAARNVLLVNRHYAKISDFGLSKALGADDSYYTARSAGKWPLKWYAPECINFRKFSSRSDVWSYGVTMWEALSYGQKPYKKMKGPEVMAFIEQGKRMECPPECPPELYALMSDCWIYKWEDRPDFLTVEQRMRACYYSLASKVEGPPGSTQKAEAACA
Chain of Cyclin-dependent kinase 17 (Homo sapiens) (Q00537 whole entry, looked up, canonical isoform): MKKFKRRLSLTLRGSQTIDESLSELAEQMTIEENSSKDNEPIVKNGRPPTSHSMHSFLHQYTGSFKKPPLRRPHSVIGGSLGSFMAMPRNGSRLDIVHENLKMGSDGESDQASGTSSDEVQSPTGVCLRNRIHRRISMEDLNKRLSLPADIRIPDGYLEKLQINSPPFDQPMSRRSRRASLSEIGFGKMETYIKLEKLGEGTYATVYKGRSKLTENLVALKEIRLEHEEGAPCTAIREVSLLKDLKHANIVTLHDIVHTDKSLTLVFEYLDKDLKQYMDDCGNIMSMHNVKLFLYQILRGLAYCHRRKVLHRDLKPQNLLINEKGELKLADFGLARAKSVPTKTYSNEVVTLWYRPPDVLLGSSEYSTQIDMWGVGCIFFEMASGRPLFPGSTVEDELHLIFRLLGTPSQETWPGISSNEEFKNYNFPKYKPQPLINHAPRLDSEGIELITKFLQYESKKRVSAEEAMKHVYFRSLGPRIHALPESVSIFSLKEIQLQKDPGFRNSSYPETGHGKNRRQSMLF
Chain of 5-hydroxytryptamine receptor 7 (P34969 whole entry): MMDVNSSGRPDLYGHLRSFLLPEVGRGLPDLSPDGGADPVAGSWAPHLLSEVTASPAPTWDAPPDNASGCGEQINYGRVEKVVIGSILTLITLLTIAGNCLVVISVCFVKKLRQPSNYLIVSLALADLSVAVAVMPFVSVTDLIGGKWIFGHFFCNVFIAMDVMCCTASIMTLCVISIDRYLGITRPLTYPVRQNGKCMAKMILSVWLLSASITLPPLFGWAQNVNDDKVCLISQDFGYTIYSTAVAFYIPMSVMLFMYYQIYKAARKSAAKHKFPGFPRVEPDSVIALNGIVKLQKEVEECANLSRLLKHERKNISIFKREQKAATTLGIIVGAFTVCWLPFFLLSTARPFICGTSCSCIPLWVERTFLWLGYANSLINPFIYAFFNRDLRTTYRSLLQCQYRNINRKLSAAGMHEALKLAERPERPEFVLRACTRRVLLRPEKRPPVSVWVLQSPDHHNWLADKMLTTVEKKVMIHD
Chain of Cyclin-dependent kinase-like 2 (Homo sapiens) (Q92772 whole entry, canonical isoform): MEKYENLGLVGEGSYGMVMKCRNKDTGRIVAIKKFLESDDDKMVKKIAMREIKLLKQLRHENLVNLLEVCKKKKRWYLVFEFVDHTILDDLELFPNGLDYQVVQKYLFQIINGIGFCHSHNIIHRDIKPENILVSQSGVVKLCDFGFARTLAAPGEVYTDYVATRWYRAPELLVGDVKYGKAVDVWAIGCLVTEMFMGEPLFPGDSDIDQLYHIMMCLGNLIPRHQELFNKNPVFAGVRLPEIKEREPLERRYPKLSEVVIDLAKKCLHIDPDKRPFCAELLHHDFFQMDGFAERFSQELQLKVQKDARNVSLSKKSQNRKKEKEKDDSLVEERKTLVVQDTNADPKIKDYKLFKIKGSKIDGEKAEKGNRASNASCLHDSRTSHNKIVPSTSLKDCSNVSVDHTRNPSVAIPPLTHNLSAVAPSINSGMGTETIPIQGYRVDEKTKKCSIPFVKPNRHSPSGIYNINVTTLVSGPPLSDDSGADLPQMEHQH
Chain of Phosphatidylinositol 3-kinase catalytic subunit type 3 (Homo sapiens) (Q8NEB9 whole entry): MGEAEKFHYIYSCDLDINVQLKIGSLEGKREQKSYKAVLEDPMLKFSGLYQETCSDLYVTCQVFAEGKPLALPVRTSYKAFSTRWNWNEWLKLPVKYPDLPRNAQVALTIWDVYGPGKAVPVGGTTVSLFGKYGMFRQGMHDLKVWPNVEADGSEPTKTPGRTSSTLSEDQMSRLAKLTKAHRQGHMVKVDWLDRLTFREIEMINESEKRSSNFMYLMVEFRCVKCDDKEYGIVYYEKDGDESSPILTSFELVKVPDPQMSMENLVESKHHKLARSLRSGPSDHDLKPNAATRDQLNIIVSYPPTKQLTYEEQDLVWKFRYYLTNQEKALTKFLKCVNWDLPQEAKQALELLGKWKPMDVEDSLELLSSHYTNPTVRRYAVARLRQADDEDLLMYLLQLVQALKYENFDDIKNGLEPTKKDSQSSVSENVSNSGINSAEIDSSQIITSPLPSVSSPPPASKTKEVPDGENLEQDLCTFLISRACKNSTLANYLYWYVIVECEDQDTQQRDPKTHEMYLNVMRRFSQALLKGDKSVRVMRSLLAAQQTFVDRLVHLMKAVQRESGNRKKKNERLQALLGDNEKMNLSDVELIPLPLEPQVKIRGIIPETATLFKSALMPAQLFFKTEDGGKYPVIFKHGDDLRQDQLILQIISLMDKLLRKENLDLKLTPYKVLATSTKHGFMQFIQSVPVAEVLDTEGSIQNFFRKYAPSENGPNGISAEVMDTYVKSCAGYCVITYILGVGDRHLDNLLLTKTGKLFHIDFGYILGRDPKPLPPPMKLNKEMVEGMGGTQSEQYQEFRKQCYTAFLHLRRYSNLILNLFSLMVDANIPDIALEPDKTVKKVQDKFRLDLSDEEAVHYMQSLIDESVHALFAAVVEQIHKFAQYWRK
Chain of Serine/threonine-protein kinase PknB (Mycobacterium tuberculosis) (P9WI81 whole entry): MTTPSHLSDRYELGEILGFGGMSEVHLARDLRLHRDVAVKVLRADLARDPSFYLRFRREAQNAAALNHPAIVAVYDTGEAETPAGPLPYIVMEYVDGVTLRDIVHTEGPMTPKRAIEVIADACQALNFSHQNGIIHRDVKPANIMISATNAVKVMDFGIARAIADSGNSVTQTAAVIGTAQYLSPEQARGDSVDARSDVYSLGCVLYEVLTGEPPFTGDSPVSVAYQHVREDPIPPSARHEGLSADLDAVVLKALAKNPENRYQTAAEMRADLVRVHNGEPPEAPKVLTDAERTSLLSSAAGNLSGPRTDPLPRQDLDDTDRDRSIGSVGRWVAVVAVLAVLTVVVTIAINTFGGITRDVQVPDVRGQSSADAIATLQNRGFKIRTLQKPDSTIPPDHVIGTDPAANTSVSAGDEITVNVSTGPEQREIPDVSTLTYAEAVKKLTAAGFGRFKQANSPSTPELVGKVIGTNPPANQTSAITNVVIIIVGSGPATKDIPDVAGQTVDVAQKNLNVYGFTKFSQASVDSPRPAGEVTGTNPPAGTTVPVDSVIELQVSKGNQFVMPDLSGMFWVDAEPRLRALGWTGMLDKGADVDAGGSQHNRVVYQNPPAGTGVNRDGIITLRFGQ
Chain of Serine/threonine-protein kinase 33 (Homo sapiens) (Q9BYT3 whole entry, looked up): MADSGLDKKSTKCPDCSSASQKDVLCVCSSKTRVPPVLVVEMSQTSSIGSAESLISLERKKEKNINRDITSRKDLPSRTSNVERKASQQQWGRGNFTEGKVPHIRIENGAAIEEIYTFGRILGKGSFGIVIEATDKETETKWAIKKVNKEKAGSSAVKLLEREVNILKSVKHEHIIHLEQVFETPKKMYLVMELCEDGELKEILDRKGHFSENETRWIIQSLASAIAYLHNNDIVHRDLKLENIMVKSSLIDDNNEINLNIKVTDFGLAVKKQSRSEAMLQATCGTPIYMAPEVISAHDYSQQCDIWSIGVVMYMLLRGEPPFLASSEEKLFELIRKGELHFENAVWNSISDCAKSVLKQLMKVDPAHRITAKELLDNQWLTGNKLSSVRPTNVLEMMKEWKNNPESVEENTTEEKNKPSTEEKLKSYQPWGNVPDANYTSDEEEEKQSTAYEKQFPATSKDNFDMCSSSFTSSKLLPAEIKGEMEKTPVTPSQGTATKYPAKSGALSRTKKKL
Chain of Activin receptor type-2B (Homo sapiens) (Q13705 whole entry): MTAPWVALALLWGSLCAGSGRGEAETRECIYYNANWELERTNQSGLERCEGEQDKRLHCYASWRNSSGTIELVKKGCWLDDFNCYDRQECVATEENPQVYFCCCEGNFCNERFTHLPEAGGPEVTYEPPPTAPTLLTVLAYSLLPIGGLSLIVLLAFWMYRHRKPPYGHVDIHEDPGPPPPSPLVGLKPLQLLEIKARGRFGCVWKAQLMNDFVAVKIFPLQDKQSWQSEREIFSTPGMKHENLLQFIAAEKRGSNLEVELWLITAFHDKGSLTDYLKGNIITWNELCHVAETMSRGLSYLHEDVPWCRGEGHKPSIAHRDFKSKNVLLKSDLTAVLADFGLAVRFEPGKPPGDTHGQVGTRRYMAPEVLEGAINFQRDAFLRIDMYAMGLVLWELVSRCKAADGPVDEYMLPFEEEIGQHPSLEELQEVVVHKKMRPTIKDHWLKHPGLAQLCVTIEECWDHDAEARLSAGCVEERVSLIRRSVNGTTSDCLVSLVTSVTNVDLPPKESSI
Chain of Mitogen-activated protein kinase 1 (Homo sapiens) (P28482 whole entry): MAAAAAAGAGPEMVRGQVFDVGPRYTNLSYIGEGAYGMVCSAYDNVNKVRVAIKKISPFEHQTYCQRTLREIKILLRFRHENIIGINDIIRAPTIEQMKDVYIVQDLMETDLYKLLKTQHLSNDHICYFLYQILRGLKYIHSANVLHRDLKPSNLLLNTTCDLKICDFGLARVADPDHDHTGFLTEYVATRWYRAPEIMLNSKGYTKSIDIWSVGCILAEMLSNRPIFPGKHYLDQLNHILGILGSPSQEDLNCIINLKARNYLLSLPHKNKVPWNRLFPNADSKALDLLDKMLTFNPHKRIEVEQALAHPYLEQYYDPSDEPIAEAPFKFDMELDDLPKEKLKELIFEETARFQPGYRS

Row | Compound | residual activity [1] [%] | residual activity [2] [%] | residual activity [3] [%] | inhibition [4] [%] | inhibition [5] [%] | residual activity [6] [%] | residual activity [7] [%] | residual activity [8] [%] | residual activity [9] [%] | residual activity [10] [%] | residual activity [11] [%] | residual activity [12] [%] | residual activity [13] [%] | inhibition [14] [%] | residual activity [15] [%] | residual activity [16] [%] | residual activity [17] [%] | residual activity [18] [%] | residual activity [19] [%] | residual activity [20] [%] | further results
1 | CC(C)CC(=O)N1CCc2nc(-c3ccc(Br)cc3)nc(N(C)Cc3ccccc3)c2C1 [THPP-1-NC] | 100 | 100 | 100 | 64.5 | 18.3 | 100 | 87 | 87 | 100 | 100 | 100 | 100 | 100 | 7.59 | 85 | 79 | 93 | 97 | 100 | 100 | residual activity [21]: 100%; residual activity [22]: 68%; residual activity [23]: 100%; residual activity [24]: 100%; residual activity [25]: 100%; residual activity [26]: 100%; residual activity [27]: 100%; residual activity [28]: 100%; residual activity [29]: 100%; residual activity [30]: 66%; residual activity [31]: 100%; residual activity [32]: 91%; residual activity [33]: 100%; residual activity [34]: 100%; residual activity [35]: 100%; residual activity [36]: 74%; residual activity [37]: 65%
2 | COCCOc1nc(-c2ccc(Cl)nc2)nc2c1CN(C(=O)c1ncn3ccccc13)CC2 [THPP-1] | 100 | 93 | 100 | 42.3 | 5.45 | 100 | 95 | 98 | 100 | 100 | 100 | 100 | 100 | 7.79 | 71 | 95 | 95 | 86 | 100 | 100 | residual activity [21]: 100%; residual activity [22]: 88%; residual activity [23]: 87%; residual activity [24]: 100%; residual activity [25]: 100%; residual activity [26]: 100%; residual activity [27]: 100%; residual activity [28]: 100%; residual activity [29]: 100%; residual activity [30]: 68%; residual activity [31]: 100%; residual activity [32]: 95%; residual activity [33]: 100%; residual activity [34]: 100%; residual activity [35]: 100%; residual activity [36]: 53%; residual activity [37]: 65%
